Test results published in ChEMBL document CHEMBL3507680, “University of Dundee, Gates Library screen for HepG2 cell viability”.

Test: Human HepG2 cell viability assay in 384 well format
Format: toxicity, cell-based
Parameters: dose 125 nL, time 70.5 hour; concentration not given beside the values
Settings: HepG2 cells, read-out: Inhibition

SMILES | cytotoxicity at 70.5 h
O=S1(=O)C[C@@H]2[C@H](C1)N(Cc1ncc[nH]1)CCN2Cc1cccnc1 | -3.77%
CC(C)CCn1cc(C(C(=O)O)N2CCCN(C3CCCC3)CC2)cn1 (stereo unspecified) | -9.63%
Cc1ccsc1CN1CCC(n2cc(C(O)c3ccccc3)nn2)CC1 (stereo unspecified) | -8.81%
CCNc1ncc(C(=O)NCc2ccc(F)c(C(F)(F)F)c2)cn1 | 20.6%
CCc1nc(NCCc2c(C)nn(CC)c2C)c2cnn(C)c2n1 | -9.28%
Cc1nnc(SCC(=O)NCC(c2ccccc2Cl)N(C)C)s1 (stereo unspecified) | -7.07%
Cn1cc(CN2CCC(CCC(=O)NCc3ccc(F)cc3)CC2)cn1 | 4.72%
Cc1ccc(CN2CCN(c3ncccc3C(N)=O)CC2CCO)cc1 (stereo unspecified) | -2.3%
CCn1cc(CN2CCC(N3CCC(O)CC3)CC2)cc1C#N | -5.22%
Fc1ccc(Cn2ncc3c2CN(c2noc(C4CC4)n2)C3)cc1 | -3.43%
O=C(O)C1(Oc2ccccc2)CCN(c2ccncc2)CC1 | -2.23%
CN(C)[C@H]1CCCCN(C(=O)c2cccc(-c3cccc(F)c3)c2)C1 | -4.14%
CC(=O)Nc1ccc(CNC(=O)CNCc2nnc(C)o2)cc1 | 2.3%
CCNC(=O)[C@@H]1C[C@H](N)CN1C1CCN(c2ccccc2OC)CC1 | -3.8%
CC(=O)c1ccc(C(=O)N2CCC(c3cc(O)nc(C)n3)CC2)s1 | -10.9%
CCc1nccc(CN2CCC(CNC(=O)c3occc3C)C2)n1 (stereo unspecified) | -5.76%
CCn1nc(C)cc1S(=O)(=O)N1CCC2(CC(=O)NC2=O)C1 (stereo unspecified) | -5.01%
CCc1cc(CN(Cc2cccnc2)C2CN3CCC2CC3)on1 (stereo unspecified) | 24.6%
CCn1cnnc1CN(C)c1nccc(C2CCCC2)n1 | -7.13%

SMILES | cytotoxicity at 70.5 h
Cc1nc(CCCNC(=O)c2coc(CN3CCOCC3)c2)sc1C | -0.625%
CC(=O)c1cc(CN2C[C@@H](CN3CCC(O)CC3)[C@@H](CO)C2)n(C)c1 | 0.0676%
O=C(c1cc(COc2ccc3c(c2)OCO3)[nH]n1)N1CCCO1 | -2.52%
Cc1ccccc1OC1CCN(C(=O)CNC(=O)N(C)C)CC1 | -15.2%
O=C1NCCCc2[nH]c(-c3nc(C4CC4)no3)nc21 | -3.92%
COc1nc2ccccc2cc1CN1CCC(CNS(C)(=O)=O)C1 (stereo unspecified) | 0.512%
CC(C)CN1CCCn2nc(CNC(=O)Cc3cccc(O)c3)cc2C1 | -9.37%
Cc1cc2[nH]cc(C(=O)N3CCCCC3c3ccc(F)cc3)c(=O)n2n1 (stereo unspecified) | -3.07%
CCc1ccc(C2c3nc[nH]c3CCN2Cc2nccn2CC)nc1 (stereo unspecified) | 33.1%
COCCc1noc(CN2C(=O)OC[C@@H]2C(C)C)n1 | 2.12%
CCCc1cc(=O)[nH]c(-c2cccc(CN3CCN4CCCC4C3)c2)n1 (stereo unspecified) | -6.97%
O=C(NCC(F)F)c1ccc(S(=O)(=O)NCCc2cn[nH]c2)cc1 | -8.61%
COc1ccccc1N1CC(NC(=O)c2cc(C(C)C)nn2C)CC1=O (stereo unspecified) | 12.6%
Cc1ccccc1N1CCN(C(=O)CCc2nncn2C)C(C)C1 (stereo unspecified) | -1.67%
CCN(CCc1nc2cc(C)ccc2[nH]1)C(=O)[C@@H](N)COC | 10%
NCC(=O)N1CCCCC1c1ccc(F)cc1 (stereo unspecified) | -2.07%
NCCn1cc(C(=O)N2CCNC(=O)C2c2cccc(F)c2)nn1 (stereo unspecified) | -11.9%
CCc1[nH]c2c(CNc3cncc(C(=O)N(C)C)n3)cc(C)cc2c1C | 27.8%
CNc1nc(C(=O)N2CCN(c3cc(C)nc(C)c3)CC2)cs1 | -9.69%

SMILES | cytotoxicity at 70.5 h
COc1ccc([C@@H]2CN(C(=O)Cc3cccs3)C[C@H]2NC(C)=O)cc1 | -4.36%
NC1CCN(C2CCN(c3ccc(-c4ccco4)cc3)CC2)CC1 | -12%
O=C(NCc1cc2ccccc2s1)c1cc(CN2CCCC(O)C2)on1 (stereo unspecified) | -3.19%
O=C(CCC(F)(F)F)N1CCCC(CO)(CC2CC2)C1 (stereo unspecified) | -8.1%
Cc1ccc(-c2ccnc(NC(C)c3n[nH]c(C)n3)n2)c(C)n1 (stereo unspecified) | -9.42%
O=C1NC(C(=O)NCc2cccnc2Oc2ccc(F)cc2F)CO1 (stereo unspecified) | -18.3%
CCC(CC)CN1CCCn2nc(CNC(=O)COC)cc2C1 | -10.4%
O=C(Nc1ccccc1)c1cc2n(n1)CCCN(C(=O)c1ccc[nH]1)C2 | 14.9%
O=C(NCCc1c[nH]cn1)c1ccc(S(=O)(=O)NC2CCOC2)cc1 (stereo unspecified) | -0.712%
CC(C)(C)n1cc(C2=CCN(CCc3ccccn3)CC2)cn1 | -5.94%
CN(Cc1noc2c1CCCC2)C(=O)CN1C(=O)COc2ccccc21 | -6.93%
Cc1cc2cc(C(=O)N3CCN(CCO)[C@@H]4CS(=O)(=O)C[C@@H]43)ccc2o1 | 19.6%
OCCNc1cc(-c2nccnc2N2CCCC2)c2cc[nH]c2n1 | 34%
CN(c1ncccc1CNCc1ncc[nH]1)C1CCCCC1 | -13.1%
Cc1ccc(C(C(=O)N2CC(c3ccccn3)C2)N(C)C)cc1 (stereo unspecified) | 13%
COCCN1C(=O)[C@H]2CC[C@@H]1CN(C(=O)Cc1ccc(O)c(Cl)c1)C2 | 16.7%
Cc1nn2c(NCC(=O)NC3CC3)cc(-c3ccccc3)nc2c1C | -2.36%
O=C(c1cc[nH]n1)N1CCc2ncnc(N3CCSCC3)c2CC1 | 10.4%
